Literature values in patent US10045978B2 (AB SCIENCE, priority 2010, dated 2018).
Read-outs that look alike come from different tables or passages of the source.

Legend:
[1] = test system: patients with WHO-defined systemic mastocytosis (SM); conditions: cited from earlier work
mastocytosis patients = conditions: in vivo; cited from earlier work
[2] = test system: mast cells carrying the D816V c-Kit mutation; conditions: in vitro; cited from earlier work
[3] = test system: indolent mastocytosis patients; conditions: cited from earlier work
patients = conditions: of patients; cited from earlier work
[4] = entire evaluable study population (N=108)
[5] = patients with indolent SM (N=22)

Molecule | major response rate [1, 4] | overall response rate [1, 4] | overall response rate [1, 5] | cases with reduced mast cell tumor burden (mastocytosis patients) | response of mast cells carrying the D816V c-Kit mutation [2] | overall response rate ([1]; c-Kit D816V positive SM patients) | patients reporting symptomatic improvements [3] | grade 4 neutropaenia (patients)
Nc1nc(Cl)nc2c1ncn2[C@H]1C[C@H](O)[C@@H](CO)O1 [Cladribine] | 37% | 55% | 56% | up to 50% | – | – | – | –
NC(=O)NO [hydroxyurea] | 0% | 19% | 0% | – | – | – | – | –
Cc1ccc(NC(=O)c2ccc(CN3CCN(C)CC3)cc2)cc1Nc1nccc(-c2cccnc2)n1 [imatinib] | 9% | 18% | 14% | – | resistant | 17% | 6/11 | 5%
interferon-alpha | 18% | 53% | 60% | – | – | – | – | –
